According to US12290512B2, “Gel composition with an anaesthetic effect of short and long term duration” (priority 2018, dated 2025):

Test: anaesthetic effect (onset and duration) of gel composition administered through the urethra
Format: in vivo
Details: gel compositions comprising the anaesthetic

CCCCN1CCCCC1C(=O)Nc1c(C)cccc1C (centres unmarked) [bupivacaine]
duration of action: up to 7 hours
onset of action: 7 to 10 min

CCN(CC)CC(=O)Nc1c(C)cccc1C [lidocaine]
duration of action: 15 to 20 min

CCCN1CCCC[C@H]1C(=O)Nc1c(C)cccc1C [ropivacaine]
duration of action: 120 to 600 min
onset of action: 10 to 20 min
